Assay results reported in patent US7078406B2, “Substituted diphenyloxazoles, the synthesis thereof, and the use thereof as fluorescence probes” (Johnson & Johnson Pharmaceutical Research & Development, …, priority 2001, dated 2006).
“Also recorded” adds a separate entry of the source.

Experiments:
thrombin = thrombin (Homo sapiens, UniProt P00734); experiment: Fluorescence emission spectra of dye mixed with native and heat-unfolded thrombin; conditions: for emission maximum (comparison dyes): comparison value, conditions not stated
Method: FIG. 2 provides the fluorescence emission spectra of 4-[5-(4-dimethylaminophenyl)oxazol-2-yl]-N-(2-guanidinoethyl)-benzenesulfonamide (10 μM) mixed with thrombin (0.1 mg/mL) in buffer (50 mM HEPES, pH 7.5, 150 mM NaCl). The emission spectrum indicated by the squares was acquired with native (folded) thrombin, immediately after preparing the solution. The emission spectrum indicated by the triangles was obtained after heating the solution to 80° C. for five minutes to unfold the thrombin protein.
(§1) 4-[5-(4-dimethylaminophenyl)oxazol-2-yl]-N-(2-guanidinoethyl)-benzenesulfonamide was mixed with different solvents to yield a final dye concentration of 10 μM. The spectra of this dye in methanol (MeOH), dimethyl sulfoxide (DMSO), and aqueous buffer (50 mM HEPES, pH7.5, 150 mM sodium chloride) are shown in FIG. 1. This figure illustrates the marked enhancement in emission intensity (200–500 fold) observed for this dye when it is shifted from an aqueous environment to a nonaqueous environment. The 4-[5-(4-dimethylaminophenyl)oxazol-2-yl]-N-(2-guanidinoethyl)benzenesulfonamide was mixed with a 0.1 mg/mL solution of thrombin, a protein, in buffer (50 mM HEPES, pH7.5, 150 mM sodium chloride), to yield a final dye concentration of 10 μM. The fluorescence emission spectra of this solution were recorded both immediately after mixing and also following heating of the solution to 80° C. for 5 minutes.

PPAR-gamma = molecular target: T1, PPAR-gamma (Homo sapiens, UniProt P37231); experiment: Fluorescence curves on heating in a Thermofluor instrument (protein unfolding transition); conditions: 100 μM dye, 0.2 mg/mL protein, 25 mM HEPES pH 7.9, 200 mM NaCl, 5 mM dithiothreitol, 1 mM EDTA, 384-well plate
T1 sequence (P37231 1-505): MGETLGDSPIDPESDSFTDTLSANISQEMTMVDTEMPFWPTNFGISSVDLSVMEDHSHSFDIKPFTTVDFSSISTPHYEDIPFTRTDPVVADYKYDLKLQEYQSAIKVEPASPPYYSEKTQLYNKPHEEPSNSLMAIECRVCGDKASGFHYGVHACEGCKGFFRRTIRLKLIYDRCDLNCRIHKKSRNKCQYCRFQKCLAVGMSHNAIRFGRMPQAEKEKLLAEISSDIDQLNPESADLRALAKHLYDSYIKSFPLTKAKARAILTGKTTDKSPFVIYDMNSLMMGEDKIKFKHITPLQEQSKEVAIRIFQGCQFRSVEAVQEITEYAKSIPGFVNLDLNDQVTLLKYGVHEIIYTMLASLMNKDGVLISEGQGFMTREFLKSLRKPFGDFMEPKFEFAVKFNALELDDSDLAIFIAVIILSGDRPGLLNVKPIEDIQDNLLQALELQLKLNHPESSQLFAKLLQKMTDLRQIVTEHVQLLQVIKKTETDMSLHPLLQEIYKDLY
Source text: FIG. 3 provides the individual fluorescent curves for three dyes 4-[5-(4-dimethylaminophenyl)oxazol-2-yl]-N-(2-guanidinoethyl)-benzene-sulfonamide, 5-(4″-dimethylaminophenyl)-2-(4′-phenyl)oxazole sulfonate, and 1,8-anilino-napthylene sulfonate) when analyzed in a Thermofluor® instrument using the protein PPAR-gamma as described in Example 3.
4-[5-(4-dimethylaminophenyl)oxazol-2-yl]-N-(2-guanidinoethyl)-benzenesulfonamide, 5-(4″-dimethylaminophenyl)-2-(4′-phenyl)oxazole sulfonate, and 1,8-anilino-napthylene sulfonate were mixed with a protein, PPAR-gamma, each in separate wells of a polypropylene 384-well plate. Each solution consisted of 100 μM of each dye mixed with 0.2 mg/mL protein in a buffer consisting of 25 mM HEPES pH 7.9, 200 mM NaCl, 5 mM dithiothreitol, and 1 mM EDTA. Individual fluorescence curves generated by heating to different temperatures in a Thermofluor® instrument are shown in FIG. 3.

[1] = Fluorescence emission spectra of the dye in different solvents; assay type: physicochemical; conditions: 10 μM dye; shifted from aqueous buffer (50 mM HEPES, pH7.5, 150 mM sodium chloride) to nonaqueous environment (MeOH, DMSO)
Method: FIG. 1A provides the fluorescence emission spectra of 4-[5-(4-dimethylaminophenyl)oxazol-2-yl]-N-(2-guanidinoethyl)-benzenesulfonamide in methanol and in dimethylsulfoxide. Also provided is the fluroescence emission spectrum of the buffer. FIG. 1B provides part of the spectrum of FIG. 1A, showing the range from 0 to 10,000 cps.
as §1

emission maximum (comparison dyes) (thrombin) | measurable unfolding transition of the protein (PPAR-gamma) | enhancement in emission intensity [1] | emission maximum of dye bound to unfolded protein (thrombin; 10 μM dye, 0.1 mg/mL thrombin, 50 mM HEPES pH7.5, 150 mM NaCl, after heating to 80° C. for 5 minutes) [nm] | Structure (SMILES) | change in fluorescence emission on binding to unfolded protein (thrombin; 10 μM dye, 0.1 mg/mL thrombin, after heating to 80° C. for 5 minutes vs native)
approximately 460 nm | fail to produce a measurable transition |  |  | O=S(=O)(O)c1cccc2cccc(Nc3ccccc3)c12 [1,8-anilinonaphthylene sulfonate, reference compound] | 
 | can be readily monitored | 200–500 fold | 520 | CN(C)c1ccc(-c2cnc(-c3ccc(S(=O)(=O)NCCNC(=N)N)cc3)o2)cc1 [4-[5-(4-dimethylaminophenyl)oxazol-2-yl]-N-(2-guanidinoethyl)benzenesulfonamide] | substantial enhancement in fluorescence emission; also recorded: increase in fluorescence emission
approximately 460 nm | fail to produce a measurable transition |  |  | CN(C)c1ccc(-c2cnc(-c3ccc(S(=O)(=O)O)cc3)o2)cc1 [5-(4″-dimethylaminophenyl)-2-(4′-phenyl)oxazole sulfonate, reference compound] | 
